Measured values published in patent US7368428B2, “Compositions and methods for restoring sensitivity of tumor cells to antitumor therapy and inducing apoptosis” (A&G Pharmaceutical, Inc., priority 2003, dated 2008).
Structures can show the parent of a compound that is named as a salt.

Legend:
[1] = test system: MCF-7 breast carcinoma cells; assay: PARP cleavage Western blot (apoptosis) in MCF-7 cells; type: cell-based; details: FIG. 5; for 85 kDa PARP cleavage product: agent alone
Source text: Tamoxifen-induced apoptosis is blocked in tumor cells overexpressing GP88. FIG. 5 is a western blot measuring the level of the PARP cleavage product (85 kDa band) in MCF-7 breast carcinoma cells treated with tamoxifen, tamoxifen+GP88, tamoxifen+estradiol, GP88, and a control. […] Tamoxifen-induced apoptosis was blocked by treatment with estradiol, a compound known to block tamoxifen-induced apoptosis, as shown by the decrease in the 85 kDa band in the lane labeled “Tamoxifen+estradiol.” Tamoxifen-induced apoptosis was blocked by treatment with GP88 to the same extent as treatment by estradiol.
(§1) The present invention also provides methods of inducing apoptosis comprising administering a GP88 antagonist to a tumor cell. Apoptosis can be induced in all tumor cell types including, but not limited to, neuroblastoma, glioblastoma, astrocytoma, sarcomas, and cancers of the prostate, blood, cerebrospinal fluid, liver, kidney, breast, head and neck, pharynx, thyroid, pancreas, stomach, colon, colorectal, uterus, cervix, bone, bone marrow, testes, brain, neural tissue, ovary, skin, and lung. Apoptosis can be detected in tumor cells by a variety of techniques including, but not limited to for example, detection of Bcl-2 levels or detection of the PARP cleavage product, DNA ladder, and production of apoptotic cells. PARP or poly(ADP-ribose) polymerase is a nuclear binding protein that detects DNA strand breaks and participates in DNA repair. Cleavage of PARP is a hallmark of caspases-dependent apoptosis. When apoptosis takes place, the 116 kDa intact PARP is cleaved in two fragments, 85 kDa and 25 kDa. Detection of intact and cleaved forms of PARP by Western Blot analysis with anti-PARP antibody has been established as an apoptosis assay. Duriez et al., Biochem Cell Biol. 75: 337-49, 1997. […]
(§2) MCF-7 cells or O4 cells were seeded at a density of 7×10^5 cells in 60-mm dish in DMEM/F12 supplemented with 5% FBS. […] Intact and cleaved forms of PARP were detected using a mouse monoclonal anti-PARP antibody from Oncogene Research (San Diego, Calif.). α-Actin was used for normalizing the loading.

[2] = test system: tamoxifen resistant MCF-7 cells; assay: PARP cleavage Western blot (apoptosis) in tamoxifen resistant MCF-7 cells; type: cell-based; details: agent alone, FIG. 8
Source text: as §1, with “kDa.” for “kDa. Detection of intact and cleaved forms of PARP by Western Blot analysis with anti-PARP antibody has been established as an apoptosis assay. Duriez et al., Biochem Cell Biol. 75: 337-49, 1997.”
as §2

[3] = test system: Bcl-2; assay: Bcl-2 mRNA transcript RT-PCR in MCF-7 cells; type: cell-based; details: all concentrations tested (0 to 2 μm tamoxifen), FIG. 6
Source text: (§3) Apoptosis is controlled by the ratio of apoptotic to anti-apoptotic factors, particularly Bcl-2, bcl-xl and bax. […] Zhang et al., Clin. Cancer Res. 5: 2971-7, 1999; Cameron et al., Eur. J. Cancer 36: 845-51, 2000. Alteration of Bcl-2 expression levels changes the bax:Bcl-2 ratio and alters susceptibility to apoptosis. O4 cells are MCF-7 cells transformed with a GP88 expression construct to overexpress GP88. Serrero et al., Proc. Natl. Acad. Sci. U.S.A. 97: 3993-8, 2000.
(§4) GP88 overexpression blocks down-regulation of Bcl-2 mRNA transcript in response to tamoxifen treatment. MCF-7 cells and MCF-7 cells overexpressing GP88 (O4 cells) were treated with 0 to 2 μm tamoxifen. FIG. 6. 5 μg of total RNA was reverse transcribed into single strand cDNA by Super Script II (BRL, Gaithersburg, Md.) using 20 ng random hexamer (Gibco) as primer. The reverse transcription reaction was carried out for 1 h at 42 C in […] Tris-HCl (pH8.3), 2.5 mM MgCl2, 50 mM KCl, DTT 0.01 M and dNTP (each 0.5 mM). A total of 30-35 PCR cycles depending on the gene amplified were performed, followed by electrophoresis on 1% agarose gel. The specific primer pairs used were as follows: for glyceraldehyde 3-phosphate dehydrogenase (GAPDH): forward primer 5′ […] 3′ (SEQ ID NO: 9), reverse primer, 5′ […] 3′ (SEQ ID NO: 10); for Bcl-2: forward primer 5′ […] 3′ (SEQ ID NO: 11), reverse primer 5′ […] […]

[4] = test system: Bcl-2; assay: Bcl-2 mRNA transcript RT-PCR in O4 cells; type: cell-based; details: even at elevated doses, FIG. 6
Source text: as §3, §4

[5] = test system: O4 cells (GP88 overexpressing cells); assay: tumor growth of O4 cells in ovariectomized nude mice; type: in vivo
Source text: Athymic ovariectomized female nude mice were implanted with an estradiol pellet one day before being injected (S.C) with either MCF-7 cells or O4 cells. After 10 days when the tumors were visible, the mice received either a placebo pellet or tamoxifen pellet. Tumor growth was monitored for 45 days. At the end of the experiments, mice were euthanized and the tumors were excised and evaluated. […] In contrast, tumor volume in mice with tumor induced by O4 cells and untreated with tamoxifen increased from 75 mm^3 to 150 mm^3 in 45 days. Tamoxifen treatment of tumors overexpressing GP88 increased tumor volume more than 4 times while tumor volume of untreated GP88 overexpressing tumors increased by 2 times.

[6] = test system: cyclin D1; assay: cyclin D1 expression (FIG. 11 lanes); type: cell-based
Source text: Tumors progress through various stages of growth and maturation leading to increased mobility of the tumor through the body. Therefore, tumor cells can be targeted at several stages during the progression of tumor growth and maturation. For example, GP88 antagonists inhibit tumor cell growth and proliferation. For example, GP88 induces expression of cyclin D1, a cell cycle regulatory protein involved in the growth and proliferation of tumor cells.

| Compound | 85 kDa PARP cleavage product [1] | cleavage of PARP [2] | Bcl-2 transcript [3] | Bcl-2 transcript [4] | increase of tumor volume ([5]; O4 cell tumors (overexpressing GP88), tamoxifen treatment, 45 days) | tumor volume after 45 days ([5]; O4 cell tumors, ovariectomized nude mice with estradiol pellet, tamoxifen pellet, after 45 days, FIG. 9) | tumor volume at start ([5]; O4 cell tumors, ovariectomized nude mice with estradiol pellet, tamoxifen pellet, start value, FIG. 9) | expression of cyclin D1 [6] | tamoxifen-induced apoptosis (85 kDa PARP cleavage product) ([1]; agent added together with tamoxifen) |
| --- | --- | --- | --- | --- | --- | --- | --- | --- | --- |
| CC/C(=C(\c1ccccc1)c1ccc(OCCN(C)C)cc1)c1ccccc1 [tamoxifen, tamoxifen citrate] | significantly increased | does not cleave PARP | induced down-regulation | failed to down regulate | more than 4 times | about 225 mm^3 | 50 mm^3 |  |  |
| GP88: 88 kDa glycoprotein growth factor, epithelin/granulin precursor | not in the presence of GP88 |  |  |  |  |  |  | stimulates | blocked |
